Assay results from patent US20250152585A1, “PHARMACEUTICAL COMPOUND” (Duke Street Bio Limited, priority 2022, published 2025).
Like-named read-outs stand apart in the source and are kept apart here.

Experiments:
[1] = molecular target: T1, full length N-terminally FLAG-tagged PARP1 (Homo sapiens, UniProt P09874); test: PARP1 biochemical DELFIA assay (auto-PARylation); parameters: recombinant full length human N-terminally FLAG-tagged PARP1
[2] = molecular target: T2, N-terminally FLAG-tagged PARP2 (amino acids 1-583) (Homo sapiens, UniProt Q9UGN5); test: PARP2 probe displacement HTRF assay; assay type: binding; details: binned Kd
T2 construct: N-terminally FLAG-tagged PARP2 (amino acids 1-583)
Procedure: Data analysis was performed identical as for PARP1.

[3] = molecular target: T1, full length N-terminally FLAG-tagged PARP1; test: PARP1 probe displacement HTRF assay; details: for Selectivity: PARP1 over PARP2, ratio Kd (PARP2)/Kd (PARP1); for Kd: binned Kd
[4] = binned IC50, biochemical auto-PARylation assay
[5] = read-out: PARP1 HTRF, probe displacement HTRF
[6] = binned IC50, PARP1 biochemical DELFIA assay
[7] = read-out: PARP1 HTRF, PARP1 probe displacement HTRF
[8] = PARP1 HTRF, PARP1 probe displacement HTRF

T1 sequence (P09874 whole entry, the tested form may be a part): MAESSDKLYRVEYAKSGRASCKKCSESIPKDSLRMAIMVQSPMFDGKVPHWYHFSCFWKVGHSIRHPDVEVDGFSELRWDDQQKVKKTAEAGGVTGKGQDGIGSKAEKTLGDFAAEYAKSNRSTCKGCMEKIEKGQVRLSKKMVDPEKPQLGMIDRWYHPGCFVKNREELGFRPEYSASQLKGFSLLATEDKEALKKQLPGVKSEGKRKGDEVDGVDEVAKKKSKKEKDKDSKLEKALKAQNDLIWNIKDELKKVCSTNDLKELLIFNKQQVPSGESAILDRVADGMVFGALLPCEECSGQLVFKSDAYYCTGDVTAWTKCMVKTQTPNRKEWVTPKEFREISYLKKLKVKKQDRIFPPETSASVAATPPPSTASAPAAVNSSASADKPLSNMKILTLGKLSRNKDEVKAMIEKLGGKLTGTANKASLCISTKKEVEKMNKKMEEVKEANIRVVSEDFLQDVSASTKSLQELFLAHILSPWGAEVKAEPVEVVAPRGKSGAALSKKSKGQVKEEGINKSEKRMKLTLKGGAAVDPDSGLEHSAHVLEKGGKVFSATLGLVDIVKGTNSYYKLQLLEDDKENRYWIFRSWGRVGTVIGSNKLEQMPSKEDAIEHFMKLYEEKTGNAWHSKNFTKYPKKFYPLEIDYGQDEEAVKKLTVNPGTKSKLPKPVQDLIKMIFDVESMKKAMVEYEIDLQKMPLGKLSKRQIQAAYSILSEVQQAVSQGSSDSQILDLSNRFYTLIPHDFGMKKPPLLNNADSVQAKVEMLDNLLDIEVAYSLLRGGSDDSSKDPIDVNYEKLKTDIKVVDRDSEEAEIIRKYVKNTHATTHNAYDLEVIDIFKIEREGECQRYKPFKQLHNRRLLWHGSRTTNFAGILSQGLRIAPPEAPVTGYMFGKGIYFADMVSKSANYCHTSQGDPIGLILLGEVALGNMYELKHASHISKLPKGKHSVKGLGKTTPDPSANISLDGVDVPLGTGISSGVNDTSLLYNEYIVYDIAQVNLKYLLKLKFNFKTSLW
T2 sequence (Q9UGN5 whole entry, the tested form may be a part): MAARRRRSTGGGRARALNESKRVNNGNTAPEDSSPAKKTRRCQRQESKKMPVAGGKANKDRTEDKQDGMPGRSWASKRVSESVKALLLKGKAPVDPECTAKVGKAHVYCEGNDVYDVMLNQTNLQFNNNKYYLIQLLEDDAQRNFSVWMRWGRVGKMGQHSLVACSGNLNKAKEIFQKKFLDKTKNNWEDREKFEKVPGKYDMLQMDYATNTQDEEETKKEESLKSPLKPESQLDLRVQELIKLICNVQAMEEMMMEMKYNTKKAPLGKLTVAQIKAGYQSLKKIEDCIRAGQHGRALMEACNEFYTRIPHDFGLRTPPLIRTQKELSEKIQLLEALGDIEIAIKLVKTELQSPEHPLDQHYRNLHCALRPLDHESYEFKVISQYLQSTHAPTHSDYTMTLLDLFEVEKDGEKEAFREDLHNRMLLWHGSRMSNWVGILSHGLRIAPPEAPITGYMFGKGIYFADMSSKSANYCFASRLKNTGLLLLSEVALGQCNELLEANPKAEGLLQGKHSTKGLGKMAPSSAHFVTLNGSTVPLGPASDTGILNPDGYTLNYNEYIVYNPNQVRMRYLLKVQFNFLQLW

IC50 [1, 4] | Kd ([2]; probe displacement HTRF) | Kd [3, 5] | IC50 [1, 6] | Kd ([2]; PARP2 probe displacement HTRF) | Kd [3, 7] | Kd [3, 8] | Compound | Selectivity ([3]; probe displacement HTRF)
< 0.01 µM | 0.1 to 1 µM | < 0.01 µM | – | – | – | – | CNC(=O)c1ncc(N2CCC(N3CCC(c4cc5ccc(F)cc5c(=O)[nH]4)C3)CC2)cc1F (single isomer, unassigned) [Compound 395a] | + (+ indicates a value of 10 to less than 50)
< 0.01 µM | 0.01 to 0.1 µM | < 0.01 µM | – | – | – | – | N#Cc1ccc(N2CCC(N3CCC(c4cc5ccc(F)cc5c(=O)[nH]4)C3)CC2)c(F)c1 (single isomer, unassigned) [Compound 385b] | +++ (+++ indicate a value of at least 100)
0.1 to 1 µM | 1 to 10 µM | 0.1 to 1 µM | – | – | – | – | CCc1ccc(C2CCN(C3CCN(c4ccc(C(=O)NC)cc4)CC3)C2)[nH]c1=O (single isomer, unassigned) [Compound 355a] | − (− indicates a value of less than 10)
0.01 to 0.1 µM | 0.1 to 1 µM | 0.01 to 0.1 µM | – | – | – | – | N#Cc1ccc(N2CCC(N3CCC(c4cc5cccc(F)c5c(=O)[nH]4)C3)CC2)cn1 (single isomer, unassigned) [Compound 316b] | + (+ indicates a value of 10 to less than 50)
< 0.01 µM | 0.01 to 0.1 µM | < 0.01 µM | – | – | – | – | CNC(=O)c1ccc(N2CCC(N3CCC(c4[nH]c(=O)c5cc(F)ccc5c4F)C3)CC2)cn1 (single isomer, unassigned) [Compound 370b] | ++ (++ indicates a value of 50 to less than 100)
0.01 to 0.1 µM | 0.1 to 1 µM | 0.01 to 0.1 µM | – | – | – | – | CC(=O)NC(=O)c1ccc(N2CCC(N3CCC(c4cc5ccccc5c(=O)[nH]4)C3)CC2)cc1 (single isomer, unassigned) [Compound 341b] | + (+ indicates a value of 10 to less than 50)
< 0.01 µM | 1 to 10 µM | < 0.01 µM | – | – | – | – | CCc1ccc(C2CCN(C3CCN(c4ccc(C(=O)NCC(F)F)nc4F)CC3)C2)[nH]c1=O (single isomer, unassigned) [Compound 398a] | +++ (+++ indicate a value of at least 100)
< 0.01 µM | 0.1 to 1 µM | < 0.01 µM | – | – | – | – | CNC(=O)c1ccc(N2CCC(N3CCC(c4cc5ccc(F)cc5c(=O)[nH]4)C3)CC2)c(C#N)n1 (single isomer, unassigned) [Compound 396a] | +++ (+++ indicate a value of at least 100)
0.01 to 0.1 µM | 0.1 to 1 µM | < 0.01 µM | – | – | – | – | CNC(=O)c1ccc(N2CCC(N3CCC(c4cc5c(c(C(F)(F)F)nn5C)c(=O)[nH]4)C3)CC2)c(F)n1 (single isomer, unassigned) [Compound 407a] | ++ (++ indicates a value of 50 to less than 100)
< 0.01 µM | 0.1 to 1 µM | < 0.01 µM | – | – | – | – | CCc1ccc(C2CCN(C3CCN(c4ccc(C(=O)NC)cc4)CC3)C2)[nH]c1=O (single isomer, unassigned) [Compound 355b] | +++ (+++ indicate a value of at least 100)
< 0.01 µM | 0.1 to 1 µM | < 0.01 µM | – | – | – | – | CCc1ccc(C2CCN(C3CCN(c4ccc(C(=O)NC)cc4F)CC3)C2)[nH]c1=O (single isomer, unassigned) [Compound 366b] | ++ (++ indicates a value of 50 to less than 100)
0.01 to 0.1 µM | > 10 µM | 0.01 to 0.1 µM | – | – | – | – | CCc1ccc(C2CCN(C3CCN(c4ccc(C#N)cc4Cl)CC3)C2)[nH]c1=O (single isomer, unassigned) [Compound 377a] | +++ (+++ indicate a value of at least 100)
< 0.01 µM | 0.1 to 1 µM | < 0.01 µM | – | – | – | – | CCc1ccc(C2CCN(C3CCN(c4ccc(OC(F)F)nc4)CC3)C2)[nH]c1=O (single isomer, unassigned) [Compound 382b] | +++ (+++ indicate a value of at least 100)

Further lines, the compound ahead of its results:

Compound | IC50 [1, 4] | Kd ([2]; probe displacement HTRF) | Kd [3, 5] | IC50 [1, 6] | Kd ([2]; PARP2 probe displacement HTRF) | Kd [3, 7] | Kd [3, 8] | Selectivity ([3]; probe displacement HTRF)
N#Cc1ccc(N2CCC(N3CCCC(c4nc5ccccc5c(=O)[nH]4)C3)CC2)nc1 (single isomer, unassigned) [Compound 74a] | – | – | – | 0.1 to 1 µM | 1 to 10 µM | 0.1 to 1 µM | – | + (+ indicates a value of 10 to less than 50)
CNC(=O)c1ccc(N2CCC(N3CCC(c4ncc(C)c(=O)[nH]4)C3)CC2)cn1 (single isomer, unassigned) [Compound 35b] | – | – | – | 0.01 to 0.1 µM | > 10 µM | 0.01 to 0.1 µM | – | +++ (+++ indicate a value of at least 100)
O=C(NCCF)c1ccc(N2CCC(N3CCC(c4nc5ccccc5c(=O)[nH]4)C3)CC2)cn1 (single isomer, unassigned) [Compound 117a] | – | – | – | 0.01 to 0.1 µM | 0.1 to 1 µM | 0.01 to 0.1 µM | – | + (+ indicates a value of 10 to less than 50)
CNC(=O)c1ccc(N2CCC(N3CCC(c4ccc(Cl)c(=O)[nH]4)C3)CC2)cn1 (single isomer, unassigned) [Compound 201a] | – | – | – | 0.1 to 1 µM | > 10 µM | 0.1 to 1 µM | – | + (+ indicates a value of 10 to less than 50)
CNC(=O)c1ccc(N2CCC(N3CCCC(Cc4nc5ccccc5c(=O)[nH]4)C3)CC2)cn1 (single isomer, unassigned) [Compound 57b] | – | – | – | 0.1 to 1 µM | > 10 µM | 0.1 to 1 µM | – | + (+ indicates a value of 10 to less than 50)
CNC(=O)c1ccc(N2CC(N3CCCC(Cc4nc5ccccc5c(=O)[nH]4)C3)C2)cn1 (single isomer, unassigned) [Compound 51a] | – | – | – | 0.1 to 1 µM | > 10 µM | 0.1 to 1 µM | – | + (+ indicates a value of 10 to less than 50)
CNC(=O)c1ccc(N2CCC(N3CCCC(c4nc5cnccc5c(=O)[nH]4)C3)CC2)cn1 (single isomer, unassigned) [Compound 106b] | – | – | – | 1 to 10 µM | > 10 µM | > 10 µM | – | − (− indicates a value of less than 10)
CNC(=O)c1ccc(N2CCC(N3CCC(c4cc5cccc(F)c5c(=O)[nH]4)C3)CC2)cn1 (single isomer, unassigned) [Compound 136a, 5-{4-[3-(8-fluoro-1-oxo-2H-isoquinolin-3-yl)pyrrolidin-1-yl]piperidin-1-yl}-N-methylpyridine-2-carboxamide] | – | – | – | < 0.01 µM | 0.1 to 1 µM | – | < 0.01 µM | +++ (+++ indicate a value of at least 100)
N#Cc1ccc(N2CCC(N3CCC(c4cc5cccc(F)c5c(=O)[nH]4)C3)CC2)cc1 (single isomer, unassigned) [Compound 314a] | < 0.01 µM | 0.1 to 1 µM | < 0.01 µM | – | – | – | – | + (+ indicates a value of 10 to less than 50)
CNC(=O)c1ccc(N2CCC(N3CCC(c4nc5onc(C(F)(F)F)c5c(=O)[nH]4)C3)CC2)cn1 (single isomer, unassigned) [Compound 176b] | – | – | – | 0.01 to 0.1 µM | > 10 µM | 0.1 to 1 µM | – | ++ (++ indicates a value of 50 to less than 100)
CNC(=O)c1ccc(N2CCC(N3CCC(c4ccc(CCOC)c(=O)[nH]4)C3)CC2)cn1 (single isomer, unassigned) [Compound 240a] | 0.01 to 0.1 µM | > 10 µM | 0.01 to 0.1 µM | – | – | – | – | ++ (++ indicates a value of 50 to less than 100)
CNC(=O)c1ccc(N2CCC(N3CCC(c4nc(C)cc(=O)[nH]4)C3)CC2)cn1 (single isomer, unassigned) [Compound 97b] | – | – | – | 0.1 to 1 µM | > 10 µM | 0.1 to 1 µM | – | − (− indicates a value of less than 10)
CNC(=O)c1ccc(N2CCC(N3CCC(c4nc5onc(C)c5c(=O)[nH]4)C3)CC2)cn1 (single isomer, unassigned) [Compound 149b] | – | – | – | 1 to 10 µM | > 10 µM | 1 to 10 µM | – | − (− indicates a value of less than 10)
CNC(=O)c1ccc(N2CCC(N3CCCC(c4nc5ccccc5c(=O)[nH]4)C3)CC2)c(C(F)(F)F)n1 (racemic) [Compound 138rac] | – | – | – | 0.01 to 0.1 µM | 1 to 10 µM | 0.01 to 0.1 µM | – | ++ (++ indicates a value of 50 to less than 100)
CNC(=O)c1ccc(N2CCC(CN3CC4(c5nc6ccccc6c(=O)[nH]5)CC3C4)CC2)cn1 [Compound 193] | – | – | – | 0.01 to 0.1 µM | 1 to 10 µM | – | 0.01 to 0.1 µM | +++ (+++ indicate a value of at least 100)
CNC(=O)c1ccc(N2CCC(N3CCC(c4nc5ccc(F)c(F)c5c(=O)[nH]4)C3)CC2)cn1 (single isomer, unassigned) [Compound 222a] | < 0.01 µM | 0.1 to 1 µM | < 0.01 µM | – | – | – | – | + (+ indicates a value of 10 to less than 50)
CNC(=O)c1ccc(N2CCC(N3CCC(c4cc5ccc(Cl)cc5c(=O)[nH]4)C3)CC2)cn1 (single isomer, unassigned) [Compound 129a] | – | – | – | < 0.01 µM | 1 to 10 µM | < 0.01 µM | – | +++ (+++ indicate a value of at least 100)
CNC(=O)c1ccc(N2CCC(N3CCCC(Cc4nc5ccccc5c(=O)[nH]4)C3)CC2)cn1 (single isomer, unassigned) [Compound 57a] | – | – | – | < 0.01 µM | > 10 µM | 0.01 to 0.1 µM | – | +++ (+++ indicate a value of at least 100)
CNC(=O)c1ccc(N2CCC(N3CCC(c4cc5cccc(F)c5c(=O)[nH]4)C3)CC2)nn1 (single isomer, unassigned) [Compound 209b] | – | – | – | 0.01 to 0.1 µM | 1 to 10 µM | 0.01 to 0.1 µM | – | +++ (+++ indicate a value of at least 100)
